# Experiment: Solubility in water
# Format: physicochemical
# Conditions: water at 20° C.
smiles,measurement,value
CN/C(=N\[N+](=O)[O-])NCc1cnc(Cl)s1 [compound (II)],solubility,≤ 300 µg/mL
